US6613795B2, “Enantiomerically pure basic arylcycloalkylhydroxycarboxylic esters, processes for their preparation and their use in medicaments” (priority 1996, dated 2003)
pKi: −log10 of the molar value.

Tests used:
M2 receptors = target: T1, M2 receptors (Rattus norvegicus, UniProt P10980); assay: [3H]-NMS binding studies on M2 receptors from preparations of rat hearts
T1 construct: M2 receptors from preparations of rat hearts; from tissue; host or cells: rat heart preparations
T1 sequence (P10980 1-466): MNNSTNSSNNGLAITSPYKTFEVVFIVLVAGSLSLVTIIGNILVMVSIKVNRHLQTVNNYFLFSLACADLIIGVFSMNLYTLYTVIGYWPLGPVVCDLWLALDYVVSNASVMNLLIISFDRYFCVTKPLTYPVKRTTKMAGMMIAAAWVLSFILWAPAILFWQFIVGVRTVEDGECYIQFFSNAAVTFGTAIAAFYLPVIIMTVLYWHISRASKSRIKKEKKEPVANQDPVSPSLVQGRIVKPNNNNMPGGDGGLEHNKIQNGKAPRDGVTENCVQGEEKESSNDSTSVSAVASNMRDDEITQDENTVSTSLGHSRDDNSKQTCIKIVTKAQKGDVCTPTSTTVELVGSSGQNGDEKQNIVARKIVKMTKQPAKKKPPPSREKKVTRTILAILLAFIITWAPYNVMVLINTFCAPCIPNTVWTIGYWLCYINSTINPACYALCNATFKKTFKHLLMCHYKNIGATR
Text: c pKi values from [^3H]-NMS binding studies on M2 receptors from preparations of rat hearts

M2 = assay: functional experiments on guinea pig atrium (GPA); type: cell-based
Text: a pA2 and pEC50 values from functional experiments on rabbit vas deferens, guinea pig atrium and guinea pig ileum.

| SMILES | pKi (M2 receptors) | PA2 GPA (M2) (M2) |
| --- | --- | --- |
| C[N+]1(C)CC[C@H](OC(=O)[C@@](O)(c2ccccc2)C2CCCC2)C1 [Ia, (3S,2′S)-3-[(cyclopentylhydroxyphenylacetyl)oxy]-1,1-dimethylpyrrolidinium iodide] | 7.88 | 7.92 |
| C[N+]1(C)CC[C@H](OC(=O)[C@](O)(c2ccccc2)C2CCCC2)C1 [Ib, (3S,2′R)-3-[(cyclopentylhydroxyphenylacetyl)oxy]-1,1-dimethylpyrrolidinium iodide] | 9.74 |  |
| C[N+]1(C)CC[C@@H](OC(=O)[C@](O)(c2ccccc2)C2CCCC2)C1 [Ic, (3R,2′R)-3-[(cyclopentylhydroxyphenylacetyl)oxy]-1,1-dimethylpyrrolidinium iodide] |  | 9.43 |
| C[N+]1(C)CC[C@@H](OC(=O)[C@@](O)(c2ccccc2)C2CCCC2)C1 [Id, (3R,2′S)-3-[(cyclopentylhydroxyphenylacetyl)oxy]-1,1-dimethylpyrrolidinium iodide] | 9.00 | 8.69 |
